The structures appear in SMILES notation.

PDE9, sequence (O76083 whole entry): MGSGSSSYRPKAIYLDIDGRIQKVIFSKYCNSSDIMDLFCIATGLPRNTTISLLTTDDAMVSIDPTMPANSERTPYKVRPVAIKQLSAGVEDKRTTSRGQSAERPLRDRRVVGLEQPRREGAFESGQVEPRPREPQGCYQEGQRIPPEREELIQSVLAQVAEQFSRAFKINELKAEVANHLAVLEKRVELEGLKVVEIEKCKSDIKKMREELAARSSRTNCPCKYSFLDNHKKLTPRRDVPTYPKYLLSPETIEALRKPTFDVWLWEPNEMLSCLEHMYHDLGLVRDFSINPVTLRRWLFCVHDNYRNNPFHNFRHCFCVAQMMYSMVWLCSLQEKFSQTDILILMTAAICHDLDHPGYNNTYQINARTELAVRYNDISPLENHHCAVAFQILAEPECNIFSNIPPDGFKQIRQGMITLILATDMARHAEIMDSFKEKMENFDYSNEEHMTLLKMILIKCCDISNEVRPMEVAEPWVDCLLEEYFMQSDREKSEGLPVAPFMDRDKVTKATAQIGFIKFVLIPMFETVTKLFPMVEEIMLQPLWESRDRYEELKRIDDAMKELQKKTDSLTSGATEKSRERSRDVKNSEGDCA

The first test addresses PDE9 (Homo sapiens, UniProt O76083). The test can be described thus: PDE9 inhibition assay.
Conditions: not given
It counts as biochemical. Here is the method:
Reactions are initiated by addition of the cyclic nucleotide substrate, and reactions are allowed to proceed for one hr at room temperature before being terminated through mixing with 15 uL 8 mg/mL yttrium silicate SPA beads (Amersham). […] IC50 values were calculated by non linear regression using XLfit (IDBS).
For orientation: IC50 means the midpoint of a concentration-inhibition curve. Compound `O=c1[nH]c(CN2CC(Oc3cnccn3)C2)cn2c(-c3ccccc3)ncc12` [Compound 4, 3-phenyl-6-[(3-pyrazin-2-yloxyazetidin-1-yl)methyl]-7h-imidazo[1,5-a]pyrazin-8-one] displayed an IC50 of 32 nM.
The same measure, in the same setting: the same measure for `O=c1[nH]c(CN2CC(Oc3ncccn3)C2)cn2c(-c3ccccc3)ncc12` [Compound 5, 3-phenyl-6-[(3-pyrimidin-2-yloxyazetidin-1-yl)methyl]-7h-imidazo[1,5-a]pyrazin-8-one]: 30 nM.
The same measure, in the same setting: as for `CCc1ccc(C2CN(Cc3cn4c(-c5ccccc5)ncc4c(=O)[nH]3)C2)cc1` [Compound 11, 6-[[3-(4-ethylphenyl)azetidin-1-yl]methyl]-3-phenyl-7h-imidazo[1,5-a]pyrazin-8-one], the figure is 127 nM; as for `Cc1cc(C)nc(OC2CN(Cc3cn4c(-c5ccccc5)ncc4c(=O)[nH]3)C2)n1` [Compound 14, 6-[[3-(4,6-dimethylpyrimidin-2-yl)oxyazetidin-1-yl]methyl]-3-phenyl-7h-imidazo[1,5-a]pyrazin-8-one], 50 nM.
The same measure, in the same setting: the same measure for `CC(c1cn2c(-c3ccccc3)ncc2c(=O)[nH]1)N1CC(c2ccccc2)C1` (stereo not shown) [Compound 18, 3-phenyl-6-[1-(3-phenylazetidin-1-yl)ethyl]-7h-imidazo[1,5-a]pyrazin-8-one]: 54 nM.
For the compound `O=c1[nH]c(CN2CC(c3ccc(F)cc3)C2)cn2c(-c3ccccc3)ncc12` [Compound 19, 6-[[3-(4-fluorophenyl)azetidin-1-yl]methyl]-3-phenyl-7h-imidazo[1,5-a]pyrazin-8-one], half-maximal inhibition (IC50) required 69 nM.
The same measure, in the same setting: the same measure for `COC1CN(C(c2ccccc2)c2cn3c(-c4ccccc4)ncc3c(=O)[nH]2)C1` (stereo not shown) [Compound 22, 6-[(3-methoxyazetidin-1-yl)-phenyl-methyl]-3-phenyl-7h-imidazo[1,5-a]pyrazin-8-one]: 37 nM; for `CC(c1cn2c(-c3ccccc3)ncc2c(=O)[nH]1)N1CC(Oc2ccccc2)C1` (stereo not shown) [Compound 25, 6-[1-(3-phenoxyazetidin-1-yl)ethyl]-3-phenyl-7h-imidazo[1,5-a]pyrazin-8-one]: 28 nM.

Still in this test, the particulars now being: SPA assay, 10 nM 3H-cAMP, 1 hour incubation; read-out: IC50.
With `COC1CN(C(C)c2cn3c(-c4ccc(F)cc4)ncc3c(=O)[nH]2)C1` (stereo not shown) [Compound 1, 3-(4-fluorophenyl)-6-[1-(3-methoxyazetidin-1-yl)ethyl]-7h-imidazo[1,5-a]pyrazin-8-one], the 50% inhibitory concentration (IC50) turned out to be 73 nM.
As to `CC(NCC1CCCCC1)c1cn2c(-c3ccccc3)ncc2c(=O)[nH]1` (stereo not shown) [Compound 2, 6-[1-(cyclohexylmethylamino)ethyl]-3-phenyl-7h-imidazo[1,5-a]pyrazin-8-one], the IC50 came to 187 nM.
Regarding `COC1CN(Cc2cn3c(-c4ccccc4)ncc3c(=O)[nH]2)C1` [Compound 3, 6-[(3-methoxyazetidin-1-yl)methyl]-3-phenyl-7h-imidazo[1,5-a]pyrazin-8-one], the IC50 worked out at 90 nM.
Turning to `O=c1[nH]c(CN2CC(Oc3cccc(F)n3)C2)cn2c(-c3ccccc3)ncc12` [Compound 6, 6-[[3-[(6-fluoro-2-pyridyl)oxy]azetidin-1-yl]methyl]-3-phenyl-7h-imidazo[1,5-a]pyrazin-8-one], the IC50 came out at 31 nM.
`CC(c1cn2c(-c3ccccc3)ncc2c(=O)[nH]1)N1CC(Oc2ncccn2)C1` (stereo not shown) [Compound 7, 3-phenyl-6-[1-(3-pyrimidin-2-yloxyazetidin-1-yl)ethyl]-7h-imidazo[1,5-a]pyrazin-8-one]: the IC50 was 14 nM.
For `O=c1[nH]c(CN2CC(c3ccccc3)C2)cn2c(-c3ccccc3)ncc12` [Compound 8, 3-phenyl-6-[(3-phenylazetidin-1-yl)methyl]-7h-imidazo[1,5-a]pyrazin-8-one], the IC50 stood at 78 nM.
Consider `CN(Cc1ccccc1)Cc1cn2c(-c3ccccc3)ncc2c(=O)[nH]1` [Compound 9, 6-[[benzyl(methyl)amino]methyl]-3-phenyl-7h-imidazo[1,5-a]pyrazin-8-one], for which the IC50 was 156 nM.
Still for that read-out and setting: as for `COC(=O)C1CN(Cc2ccccc2)CC1c1cn2c(-c3ccccc3)ncc2c(=O)[nH]1` (stereo not shown) [Compound 10, methyl 1-benzyl-4-(8-oxo-3-phenyl-7h-imidazo[1,5-a]pyrazin-6-yl)pyrrolidine-3-carboxylate], the figure is 43 nM; as for `CCC(c1cn2c(-c3ccccc3)ncc2c(=O)[nH]1)N1CC(c2ccc(F)cc2)C1` (stereo not shown) [Compound 12, 6-[1-[3-(4-fluorophenyl)azetidin-1-yl]propyl]-3-phenyl-7h-imidazo[1,5-a]pyrazin-8-one], 19 nM; as for `O=c1[nH]c(CN2CC(Oc3cnc4ccccc4n3)C2)cn2c(-c3ccccc3)ncc12` [Compound 13, 3-phenyl-6-[(3-quinoxalin-2-yloxyazetidin-1-yl)methyl]-7h-imidazo[1,5-a]pyrazin-8-one], 7 nM.
Take `CC(c1cn2c(-c3ccccc3)ncc2c(=O)[nH]1)N1CC(Oc2cnccn2)C1` (stereo not shown) [Compound 15, 3-phenyl-6-[1-(3-pyrazin-2-yloxyazetidin-1-yl)ethyl]-7h-imidazo[1,5-a]pyrazin-8-one]: the IC50 stood at 40 nM.
On the same count and under the same terms, the same measure for `O=c1[nH]c(CN2CC(Oc3cccc(F)c3)C2)cn2c(-c3ccccc3)ncc12` [Compound 16, 6-[[3-(3-fluorophenoxy)azetidin-1-yl]methyl]-3-phenyl-7h-imidazo[1,5-a]pyrazin-8-one]: 97 nM.
Same read-out and setting: the same measure for `O=c1[nH]c(CN2CCC(Nc3ccccc3)C2)cn2c(-c3ccccc3)ncc12` (stereo not shown) [Compound 17, 6-[(3-anilinopyrrolidin-1-yl)methyl]-3-phenyl-7h-imidazo[1,5-a]pyrazin-8-one]: 28 nM; for `COC1CN(C(C)c2cn3c(-c4ccccc4)ncc3c(=O)[nH]2)C1` (stereo not shown) [Compound 20, 6-[1-(3-methoxyazetidin-1-yl)ethyl]-3-phenyl-7h-imidazo[1,5-a]pyrazin-8-one]: 17 nM.
The same measure, in the same setting: as for `O=c1[nH]c(CN2CC(Oc3ccccc3)C2)cn2c(-c3ccccc3)ncc12` [Compound 21, 6-[(3-phenoxyazetidin-1-yl)methyl]-3-phenyl-7h-imidazo[1,5-a]pyrazin-8-one], the figure is 8 nM; as for `O=c1[nH]c(CN2CC(Oc3ccc(F)cc3)C2)cn2c(-c3ccccc3)ncc12` [Compound 23, 6-[[3-(4-fluorophenoxy)azetidin-1-yl]methyl]-3-phenyl-7h-imidazo[1,5-a]pyrazin-8-one], 16 nM.
As for `CC(c1cn2c(-c3ccccc3)ncc2c(=O)[nH]1)N1CC(Oc2cccc(F)c2)C1` (stereo not shown) [Compound 24, 6-[1-[3-(3-fluorophenoxy)azetidin-1-yl]ethyl]-3-phenyl-7h-imidazo[1,5-a]pyrazin-8-one], the 50% inhibitory concentration (IC50) was determined as 25 nM.
On the same count and under the same terms, as for `CC(c1cn2c(-c3ccccc3)ncc2c(=O)[nH]1)N1CC(Oc2ccc(F)cc2)C1` (stereo not shown) [Compound 26, 6-[1-[3-(4-fluorophenoxy)azetidin-1-yl]ethyl]-3-phenyl-7h-imidazo[1,5-a]pyrazin-8-one], the figure is 19 nM; as for `CC(c1cn2c(-c3ccccc3)ncc2c(=O)[nH]1)N1CC(Oc2cccc(F)n2)C1` (stereo not shown) [Compound 27, 6-[1-[3-[(6-fluoro-2-pyridyl)oxy]azetidin-1-yl]ethyl]-3-phenyl-7h-imidazo[1,5-a]pyrazin-8-one], 38 nM.
The same measure, in the same setting: the same measure for `CC(c1cn2c(-c3ccccc3)ncc2c(=O)[nH]1)N1CC(c2ccc(F)cc2)C1` (stereo not shown) [Compound 28, 6-[1-[3-(4-fluorophenyl)azetidin-1-yl]ethyl]-3-phenyl-7h-imidazo[1,5-a]pyrazin-8-one]: 53 nM.
